Experimental findings from article PMC10016038, “Enhanced Endosomal Signaling and Desensitization of GLP-1R vs GIPR in Pancreatic Beta Cells” (Endocrinology, 2023) are described below.

One test concerns GLP-1R-NanoLuc. In words: Rab5-Venus bystander NanoBRET (early endosome), GLP-1R. It counts as cell-based. The note with it: n = 5. From the text:
GLP-1R-NanoLuc was generated in house by polymerase chain reaction (PCR) cloning of the NanoLuciferase sequence from pcDNA3.1-ccdB-NanoLuc (a gift from Prof. Mikko Taipale; Addgene plasmid # 87067) onto the C-terminus end of the SNAP-GLP-1R vector (CisBio), followed by site-directed mutagenesis of the GLP-1R stop codon. GIPR-NanoLuc was subsequently cloned in house by exchanging the GLP-1R for the GIPR in the GLP-1R-NanoLuc construct. KRAS- and Rab5-Venus plasmids were a gift from Prof. Kevin Pfleger, University of Western Australia. The INS-1 832/3 GLP-1R KO and GIPR KO cells were seeded in 12-well plates and co-transfected with 0.2 µg KRAS-Venus and 0.1 µg GLP-1R- or GIPR-NanoLuc, respectively, or 0.5 µg Rab5-Venus and 0.1 µg GLP-1R- or GIPR-NanoLuc, respectively.
All NanoBiT and NanoBRET readings were obtained in a Flexstation 3 plate reader. Briefly, 24 hours after transfection, cells were detached, resuspended in NanoGlo Live Cell Reagent (Promega) with furimazine (1:20 dilution) and seeded into white 96-well half-area plates. […] Readings were normalized to well baseline and then to average vehicle-induced signal to establish the agonist-induced effect. AUCs from response curves were calculated for each agonist concentration and fitted to four-parameter curves using Prism 9 (GraphPad).
Figure 2. Endosomal vs plasma membrane localization of GLP-1R compared with GIPR in beta cells. […]

In test [1] the test system is cAMP response in mouse islet beta cells. The test is described as follows: cAMP FRET assay, Pdx1-CreERT/CAMPER islets. The class given is cell-based. The note with it: 100 nM, n = 4. Here is the method: Nondiabetic mice of both sexes were used for islet isolation. Briefly, pancreata were infused via the common bile duct with RPMI-1640 medium containing 1 mg/mL collagenase from Clostridium histolyticum (Nordmark Biochemicals), dissected, and incubated in a water bath at 37 °C for 10 minutes. Islets were subsequently washed and purified using a Histopaque gradient (Histopaque-1119, 11191, Sigma-Aldrich, and Histopaque-1083, 10831, Sigma-Aldrich). Isolated islets were allowed to recover overnight at 37 °C in 5% CO2 in RPMI-1640 supplemented with 10% FBS and 1% penicillin/streptomycin. […]
CAMPER reporter mice ([30]), with conditional expression of the cAMP fluorescence resonance energy transfer (FRET) biosensor ^TEPAC^VV ([31]), were purchased from Jackson Laboratory (Stock No: 032205) and crossed with Pdx1-Cre^ERT mice (in house) to generate mice with inducible ^TEPAC^VV expression from pancreatic beta cells, used to isolate islets for ex vivo cAMP FRET assays. […] Raw intensity traces for YFP and CFP fluorescence were extracted from whole islet ROIs using Fiji and YFP/CFP ratios calculated for each ROI and time point. Responses were plotted relative to the average fluorescence intensity per islet during the 6 mM glucose baseline period, before agonist addition. […]

The test system of the next test is SNAP-GIPR. The test is described as follows: Nb37 bystander NanoBiT, endosome (Endofin), GIPR. The note with it: Endofin-LgBiT, n = 4. The class given is cell-based, human. From the text: The Nb37 assay constructs were kindly provided by Prof. Asuka Inoue, Tohoku University, Japan. Nb37 (gene synthesized by GenScript with codon optimization) was C-terminally fused to SmBiT with a 15 amino acid flexible linker ([…]), and the resulting construct referred to as Nb37-SmBiT. The C-terminal KRAS CAAX motif ([…]) was N-terminally fused with LgBiT (LgBiT-CAAX). The Endofin FYVE domain (amino acid region Gln739-Lys806) was C-terminally fused with LgBiT (Endofin-LgBiT). Gαs (human, short isoform), Gβ1 (human), Gγ2 (human), and RIC8B (human, isoform 2) plasmids were inserted into pcDNA3.1 or pCAGGS expression plasmid vectors. INS-1 832/3 GLP-1R KO or GIPR KO cells were seeded in 6-well plates and co-transfected with 0.1 μg SNAP-GLP-1R or SNAP-GIPR, 0.5 μg Gαs, Gβ1, and Gγ2, 0.1 μg RIC8B, 0.1 μg CAAX-LgBiT or 0.5 μg Endofin-LgBiT with 0.1 μg or 0.5 μg Nb37-SmBiT, respectively, with 0.8 µg pcDNA3.1 added to the former to equalize DNA content.
All NanoBiT and NanoBRET readings were obtained in a Flexstation 3 plate reader. […] Readings were normalized to well baseline and then to average vehicle-induced signal to establish the agonist-induced effect. AUCs from response curves were calculated for each agonist concentration and fitted to four-parameter curves using Prism 9 (GraphPad). […]

For test [2], the system named is cAMP response in INS-1 832/3 cells. In words: cAMP HTRF assay. It counts as cell-based, rat. The note with it: 100 nM, log(Emax/EC50) in Fig. 7A, n = 5. From the text: Results were expressed as basal fold increase responses and fitted to 3-parameter curves using Prism 9 (GraphPad).
Figure 7. Functional analysis of GLP-1R vs GIPR signaling in beta cells. […] Data are mean ± SEM, compared by paired t tests; *P < .05; ns, nonsignificant.

“Also recorded” adds a separate entry of the source.

For the substance GLP-1(7-36)NH2, the “Agonist-mediated redistribution of GLP-1R to Rab5-positive early endosomes” value in the test with GLP-1R-NanoLuc is reported as “clearly detectable”.

In the case of GIP(1-42), the “cAMP response, GIP compared with GLP-1, mouse islet beta cells” value in test [1] is “a tendency replicated in primary mouse islet beta cells; also recorded: nonsignificant tendency toward increased cAMP”. For the same substance, in the test with SNAP-GIPR, the “GIPR endosomal activity, Emax response vs GLP-1R” value is listed as “profoundly reduced” and the “GIPR potency for endosomal signaling vs GLP-1R” value was “increased potency”. Besides, in test [2], the “cAMP response, GIP compared with GLP-1, INS-1 832/3” value is listed as “near-significant increase; also recorded: tendency toward increased”.
